As a reminder, the logP is a log measure of how a compound divides between an organic and an aqueous phase. Higher therefore signals higher lipophilicity. As a reminder, the solubility is how much of the substance goes into solution per volume. High values mean much dissolved substance, low ones little dissolved substance.

Structures are written as SMILES. ≈ marks a conversion by molar mass, not a printed value.

In turn, `CCCCCCCCCCCC(=O)OCCCC` showed a logP of 6.51.
Consider `CCCCCCCCCCCCCCCC(=O)OC`, for which the logP came out at 7.38.
As to `CCCCCCCCCCCCCCCCCCCCCC(=O)OC`, the logP worked out at 10.2.
In the case of `CCCCC/C=C\C/C=C\CCCCCCCC(=O)OC`, the lipophilicity (logP) came to 6.82.
On to `CCCCCCCCCCCCCCCCCCCC(=O)OC`, for which the logP amounted to 9.3.
As to `CCCCCCCCCCCC(=O)OCCC`, the logP stood at 6.11.
Same read-out and setting: the same measure for `CC/C=C\C/C=C\C/C=C\CCCCCCCC(=O)OC`: 6.29; for `CCCCCCCC/C=C\CCCCCCCC(=O)OC`: 7.45.
In turn, `CCCCCCCCCCCCCC(=O)OC` came in with a lipophilicity (logP) of 6.41.
Turning to `CCCCCCCC/C=C\CCCCCCCCCCCC(=O)OC`, the logP came out at 9.32.
For the compound `CCCCCCCCCCCCCCCCCC(=O)OC`, the logP amounted to 8.35.
Compound `CCCCCCCCCCCC(=O)OCC(CC)CCCC` (stereo not given) came in with a lipophilicity (logP) of 8.03.
In the case of `CCCCCCCCCCCC(=O)OCC`, the logP is 5.71.
Take `CCCCCCCCCCc1ccccc1`: the solubility (25 °C) turned out to be 0.011 µM (≈ 2.4 ng/mL).
`CCCCCCCCCCCC(=O)OC` gave a logP of 5.41.

The values above are taken from the OPERA property sets (Mansouri et al. 2018).
